Data as given in ChEMBL document CHEMBL4831526, “Cytotoxic Guaianolide Sesquiterpenoids from Ainsliaea fragrans” (J Nat Prod, 2021).

How the values were obtained:
Type in all cases: functional, cell-based
[1] = tested on: Huh-7; assay: Cytotoxicity against human Huh-7 cells assessed as reduction in cell viability incubated for 72 hrs by Celltiter-Glo assay; details: Huh-7, 72 h
[2] = tested on: HeLa; assay: Cytotoxicity against human HeLa cells assessed as reduction in cell viability incubated for 72 hrs by Celltiter-Glo assay
[3] = tested on: PANC-1; assay: Cytotoxicity against human PANC-1 cells assessed as reduction in cell viability incubated for 72 hrs by Celltiter-Glo assay; details: PANC-1, 72 h
[4] = tested on: C6; assay: Cytotoxicity against rat C6 cells assessed as reduction in cell viability incubated for 72 hrs by Celltiter-Glo assay; details: C6, 72 h
[5] = Cytotoxicity against human HCCLM3 cells assessed as reduction in cell viability incubated for 72 hrs by Celltiter-Glo assay; details: HCCLM3, 72 h

SMILES: C=C1C(=O)C2=C3[C@@H](CC[C@H]4C(=C)C(=O)O[C@@H]4[C@@H]13)CC[C@]21C(=O)C[C@H]2C(=C)CC[C@H]3C(=C)C(=O)O[C@@H]3[C@H]21
- IC50 [1]: > 10 µM
- IC50 [2]: > 10 µM
- IC50 [3]: > 10 µM
- IC50 [4]: 6.4 µM
- IC50 [5]: > 10 µM

SMILES: C=C1C(=O)O[C@@H]2[C@@H]3C4=C(C(=O)[C@H]3C)[C@]3(CC[C@@]4(O)CC[C@@H]12)C(=O)C[C@H]1C(=C)CC[C@@H]2[C@H](OC(=O)[C@H]2C)[C@H]13
- IC50 [1]: 4.1 µM
- IC50 [2]: 6.5 µM
- IC50 [3]: 4.9 µM
- IC50 [4]: 3.1 µM
- IC50 [5]: > 10 µM

SMILES: C=C1C(=O)O[C@@H]2[C@@H]3C4=C(C(=O)[C@H]3CO)[C@]3(CC[C@]4(O)CC[C@@H]12)C(=O)C[C@H]1C(=C)CC[C@H]2C(=C)C(=O)O[C@@H]2[C@H]13
- IC50 [1]: > 10 µM
- IC50 [2]: > 10 µM
- IC50 [3]: > 10 µM
- IC50 [4]: > 10 µM
- IC50 [5]: > 10 µM

SMILES: C=C1C(=O)C2=C3[C@H]1[C@H]1OC(=O)C(CO)=C1CC[C@]3(O)CC[C@]21C(=O)C[C@H]2C(=C)CC[C@H]3C(=C)C(=O)O[C@@H]3[C@H]21
- IC50 [1]: > 10 µM
- IC50 [2]: > 10 µM
- IC50 [3]: > 10 µM
- IC50 [4]: 9.9 µM
- IC50 [5]: > 10 µM

SMILES: C=C1C(=O)C2=C3[C@H]1[C@H]1OC(=O)C(=C)[C@@H]1CC[C@]3(O)CC[C@]21C(=O)[C@H](C[C@@H]2C(=O)C[C@H]3C(=C)CC[C@H]4C(=C)C(=O)O[C@@H]4[C@@H]23)[C@H]2C(=C)CC[C@H]3C(=C)C(=O)O[C@@H]3[C@H]21
- IC50 [1]: 2.5 µM
- IC50 [2]: 1.3 µM
- IC50 [3]: 0.4 µM
- IC50 [4]: 0.7 µM
- IC50 [5]: 8.3 µM

SMILES: C=C1C(=O)C2=C3[C@H](CC[C@H]4C(=C)C(=O)O[C@@H]4[C@@H]13)CC[C@]21C(=O)C[C@H]2C(=C)CC[C@H]3C(=C)C(=O)O[C@@H]3[C@H]21
- IC50 [1]: > 10 µM
- IC50 [2]: > 10 µM
- IC50 [3]: > 10 µM
- IC50 [4]: > 10 µM
- IC50 [5]: > 10 µM

SMILES: C=C1C(=O)C2=C3[C@H]1[C@H]1OC(=O)C(=C)[C@@H]1CC[C@@]3(O)CC[C@]21C(=O)C[C@H]2C(=C)CC[C@H]3C(=C)C(=O)O[C@@H]3[C@H]21
- IC50 [1]: > 10 µM
- IC50 [2]: > 10 µM
- IC50 [3]: 5.4 µM
- IC50 [4]: > 10 µM
- IC50 [5]: > 10 µM

SMILES: C=C1C(=O)C2=C3[C@H](CC[C@H]4C(=C)C(=O)O[C@@H]4[C@@H]13)CC[C@@]21C(=O)C2=C3[C@H]1[C@H]1OC(=O)C(=C)[C@@H]1CC[C@@]3(O)CC[C@]21C(=O)C[C@H]2C(=C)CC[C@H]3C(=C)C(=O)O[C@@H]3[C@H]21
- IC50 [1]: 7.5 µM
- IC50 [2]: 7 µM
- IC50 [3]: 2.5 µM
- IC50 [4]: 2.1 µM
- IC50 [5]: > 10 µM

SMILES: C=C1C(=O)C2=C3[C@H]1[C@H]1OC(=O)C(=C)[C@@H]1CC[C@]3(O)CC[C@]21C(=O)C[C@H]2C(=C)CC[C@H]3C(=C)C(=O)O[C@@H]3[C@H]21
- IC50 [1]: 2.5 µM
- IC50 [2]: 2.8 µM
- IC50 [3]: 2.2 µM
- IC50 [4]: 1.2 µM
- IC50 [5]: > 10 µM

SMILES: C=C1C(=O)O[C@@H]2[C@@H]3[C@@H](C[C@@]4(O)[C@]3(O)CC[C@]43C(=O)C[C@H]4C(=C)CC[C@H]5C(=C)C(=O)O[C@@H]5[C@H]43)C(=C)CC[C@@H]12
- IC50 [1]: 4.4 µM
- IC50 [2]: 5.3 µM
- IC50 [3]: 9.9 µM
- IC50 [4]: 4.3 µM
- IC50 [5]: > 10 µM
